According to patent US12097184B2, “Formulations of psilocin that have enhanced stability” (priority 2021, dated 2024):
Marks after values point to notes of the source that are not given here.

Experiments:
[1] = Salt screen using solutions in ethanol, appearance/colour on storage; conditions: light-protected; for Results at 18 h: ethanol solution, storage overnight at RT, Ar; for Result at 6 days: solvent removed, stored at RT under Ar, appearance after addition of EtOH
Exposure of HBr1 to AAC = format: physicochemical; conditions: AAC for two days
Source text: HBr1 was unstable upon exposure to AAC for two days and became deliquescent.

[2] = cited from earlier work
[3] = Analytical characterization of dosing solutions used in the PK study; format: physicochemical; conditions: after 2 hours on the bench at room temperature, PBS, depending on the concentration
Procedure: (§1) The study was conducted in male/female CD rats. Test articles were formulated fresh in PBS. Psilocin and Psilocybin were administered IV and PO. Plasma samples were analyzed for psilocin and psilocybin (group 2).
(§2) FIGS. 2A-2C show PK characteristics of psilocin and psilocybin after IV dosing. FIGS. 3A-3B show PK characteristics of psilocin and psilocybin after PO dosing. FIGS. 4A-4B show psilocin and psilocybin after IV and PO dose.
After IV administration, psilocybin is detectable in plasma for 15 minutes. PO administration of psilocin and psilocybin results in similar PK values, including tmax, t1/2, AUC, and bioavailability. […] Low stability of psilocin in aqueous solutions could be a contributing factor to observed differences. […] Stabilization of psilocin provides viable, stable formulations and lower variability of dosing solutions, resulting in a better PK, such as compared to psilocybin.

[4] = protected from light, over 14 days; cited from earlier work
[5] = PK evaluation of psilocin and psilocybin after IV and PO administration in rats; format: in vivo, CD rats; conditions: for PK values, including Cmax and AUC and Cl: IV administration; for PK values, including Cmax and AUC and Cl / PK values, including tmax, t1/2, AUC, and bioavailability: psilocin versus psilocybin; for PK values, including tmax, t1/2, AUC, and bioavailability: PO administration
Procedure: PK Evaluation of Psilocin and Psilocybin after IV and PO Administration in Rats
as §1, §2

[6] = HPLC solution stability and stress conditions, free base versus tartrate salt
[7] = after IV administration of psilocybin; cited from earlier work
intestinal epithelia = conditions: cited from earlier work
[8] = Dynamic vapor sorption/desorption (DVS) analysis; format: physicochemical
Procedure: The weight versus time and percent weight change versus percent relative humidity (RH) curves from the DVS analysis of psilocin tartrate lot 16782-15C is presented in FIGS. 13 and 14, respectively.
DVS analysis was carried out using a TA Instruments Q5000 Dynamic Vapor Sorption analyzer. The instrument was calibrated with standard weights and a sodium bromide standard for humidity. Approximately 12 mg of the powder sample was loaded into a metal-coated quartz pan for analysis. The sample was analyzed at 25° C. after being equilibrated to […] in 10% RH steps from 5 to 95% RH (adsorption cycle) and from 95 to 5% RH (desorption cycle). The movement from one step to the next occurred either after satisfying the equilibrium criterion of 0.01% weight change in 5 minutes or, if the equilibrium criterion was not met, after 90 minutes. The percent weight change values were calculated using Microsoft Excel® 2016.

[9] = Analytical characterization of a psilocin tartrate sample (solid state); format: physicochemical; conditions: OM, XRPD, DSC, TGA, DVS
Source text: One sample of psilocin tartrate (lot 16782-15C) was submitted for optical microscopy (OM), X-ray powder diffraction (XRPD), differential scanning calorimetry (DSC), thermogravimetric analysis (TGA), dynamic vapor sorption/desorption (DVS), and ^1H NMR spectroscopy.

## O=C1O[C@H]([C@@H](O)CO)C(O)=C1O [Ascorbic]
[1]
  Results at 18 h: 0
  Result at 6 days: C + solid

## Br.CN(C)CCc1c[nH]c2cccc(O)c12 [HBr1]
Exposure of HBr1 to AAC
  stability upon exposure to AAC: unstable

## O=C(O)CC(=O)O [Malonic]
[1]
  Results at 18 h: F ^c
  Result at 6 days: ↑C

## O=C(O)c1ccccc1O [Salicylic]
[1]
  Results at 18 h: 0
  Result at 6 days: ↑C

## O=C(O)CCC(=O)O [Succinic]
[1]
  Results at 18 h: F ^c
  Result at 6 days: ↑C

## CN(C)CCc1c[nH]c2cccc(O[C@@H]3O[C@H](C(=O)O)[C@@H](O)[C@H](O)[C@H]3O)c12 [psilocin glucuronide]
[2]; one week, whole blood at room temperature and deep frozen samples
  short-term stability compared with psilocin: better than that of psilocin
[2]; six months, deep frozen serum and urine samples
  long-term stability compared with psilocin: greater long-term stability

## CN(C)CCc1c[nH]c2cccc(O)c12 [psilocin, 4-hydroxy-N,N-dimethyltryptamine]
[3]
  degradation of dosing solutions: 30%-70%
[4]
  peak loss: 50%
[5]
  PK values, including Cmax and AUC and Cl: almost identical
  PK values, including tmax, t1/2, AUC, and bioavailability: similar
[5]; both sexes, CD, rat, PO administration of psilocin, plasma psilocin, read-out: Measured Cmax
  Cmax: 153 ng/mL
[2]; biological samples with addition of 25 mM ascorbic acid
  psilocin lost: greater than 5%
[6]; FIG. 20
  stability under a variety of stress conditions: limited stability

## CN(C)CCc1c[nH]c2cccc(OP(=O)(O)O)c12 [psilocybin, 4-phosphoryloxy-N, N-dimethyltryptamine, reference compound]
[5]
  PK values, including Cmax and AUC and Cl: almost identical
  PK values, including tmax, t1/2, AUC, and bioavailability: similar
[5]; after IV administration
  time psilocybin is detectable in plasma: 15 min
[7]
  inter-individual variability of psilocin concentrations: over 3 fold
Intestinal epithelia
  permeability: not permeable

## Adipic
[1]
  Result at 6 days: ↑C

## Fumaric
[1]
  Results at 18 h: F ^c

## L-Tartaric
[1]
  Results at 18 h: 0 ^d

## Maleic
[1]
  Results at 18 h: 0
  Result at 6 days: ↑C

## Mandelic
[1]
  Results at 18 h: 0

## Oxalic
[1]
  Results at 18 h: 0

## psilocin tartrate
[8]
  hygroscopicity: moderately hygroscopic
[8]; 25° C.
  wt. loss upon equilibration at 5% RH: 0.12% wt. loss upon equilibration at 5% RH
[8]; 25° C., adsorption cycle
  wt. gain from 5 to 95% RH: 4.64% wt. gain from 5 to 95% RH
[8]; 25° C., desorption cycle
  wt. loss from 95 to 5% RH: 4.67% wt. loss from 95 to 5% RH
[6]; HPLC, FIG. 21
  stability in solution compared to the free base: improved stability
[9]
  solid-state stability: stable crystalline solid
